Common to all, as to assay type: cell-based
Test [1] concerns the target T1, interaction between the KRS protein and the laminin receptor (LR) (Homo sapiens, UniProt Q15046).
T1 construct: expressed in transfected cells; host or cells: yeast EGY/SH cells
Briefly: Yeast Two Hybrid inhibition of the interaction between the KRS protein and the laminin receptor (LR). The settings on record: 1 μL of 20 mM DMSO solution per 200 μL culture; 30° C., 6 days; absorbance 540 nm; non-treated control = 100%. As for the experimental part:
The inhibitory activity against the interaction between the KRS protein and the laminin receptor (LR) was evaluated according to the Yeast Two Hybrid method described in WO2011/056021. According to the disclosures of WO2011/056021, we prepared a vector obtained by cloning the KRS gene in the LexA vector (Clontech) and a vector obtained by cloning the LR gene in the B42 vector (Clontech). The yeast cells, i.e., EGY/SH cells were co-transformed with the LexA-KRS vector and the B42-LR vector. The co-transformation was carried out using the Yeastmaker yeast transformation system2 kit (Clontech), according to the manufacturer's instruction. […] The cultured yeast cells were diluted with the said galactose medium, until the absorbance at 540 nm attains to about 0.15 to 0.2. The diluted culture (200 μL), containing the yeast cells, was added to each well of a 96-well plate. Each test compound was dissolved in dimethyl sulfoxide at a concentration of 20 mM and then the resulting solutions (1 μL) were added to each well. The plate was cultured at 30° C. for 6 days and then the absorbance of the each well was measured at 540 nm.
(§1) And also, specificity of the inhibitory activity was evaluated, using the yeast cells cotransformed with the LexA-KRS vector and the B42-AIMP2 vector; and the yeast cells co-transformed with the LexA-KRS vector and the B42-AIMP3 vector, which were respectively prepared according to WO2011/056021. The co-transformation was carried out using the Yeastmaker yeast transformation system2 kit (Clontech), according to the manufacturer's instruction. […] The cultured yeast cells were diluted with the said galactose medium, until the absorbance at 540 nm attains to about 0.15 to 0.2. The diluted culture (200 μL), containing the yeast cells, was added to each well of a 96-well plate. Each test compound was dissolved in dimethyl sulfoxide at a concentration of 20 mM and then the resulting solutions (1 μL) were added to each well. The plate was cultured at 30° C. for 6 days and then the absorbance of each well was measured at 540 nm. The respective yeast cell proliferation rates (%) in the treated samples were calculated in comparison with those of the non-treated control (100%) and the results thereof are shown in Table 1 below.
When KRS is bound to LR, the trans-activation domain is come close to the DNA-binding domain and the genes for synthesizing essential amino acids are expressed, which leads to normal growth of the transformed yeasts, thereby increasing the absorbance.

In test [2] the target is T2, binding between KRS and AIMP2 (Homo sapiens, UniProt Q15046).
T2 construct: expressed in transfected cells; host or cells: yeast cells (co-transformed)
Briefly: Yeast Two Hybrid specificity test, LexA-KRS / B42-AIMP2 co-transformed yeast cells. The note with it: 1 μL of 20 mM DMSO solution per 200 μL culture; 30° C., 6 days; absorbance 540 nm; non-treated control = 100%. The procedure: as §1

The target of test [3] is T3, binding between KRS and AIMP3 (Homo sapiens, UniProt Q15046).
T3 construct: expressed in transfected cells; host or cells: yeast cells (co-transformed)
Briefly: Yeast Two Hybrid specificity test, LexA-KRS / B42-AIMP3 co-transformed yeast cells. The note with it: 1 μL of 20 mM DMSO solution per 200 μL culture; 30° C., 6 days; absorbance 540 nm; non-treated control = 100%. As for the experimental part:
as §1

Another test deals with A549 cells. In words: Cell Migration Assay (transwell, laminin). The settings on record: Homo sapiens, laminin 10 μg/mL in lower well, test compounds 0.39˜100 μM, 6 hours at 37° C. The procedure:
Cell migration was measured with a 24-well transwell having a polycarbonate membrane (8.0 μm pore size, Costar) at the bottom of the upper chamber. Each lower well was treated with laminin (10 μg/mL) and test compounds (0.39˜100 μM) along with a serum-free RPMI1640 medium. A549 cells (Korean Cell Line Bank) were suspended in a serum-free RPMI1640 medium at a concentration of 1×10^6 cells/mL and then the test compounds were added thereto at the indicated concentrations. Each resulting solution (100 μL) was added to the upper chamber. The cells were cultured at 37° C. for 6 hours in a CO2 incubator. The upper chamber was taken out and then the cells were fixed with PBS containing 70% methyl alcohol for 10 minutes, followed by washing with PBS twice. The cells were stained with hematoxylin (Sigma) for 10 minutes and then washed with distilled water. The non-migrated cells were removed from the upper portion of the polycarbonate membrane with a cotton swab. The membranes were excised and separated from the chamber, and then mounted to a slide using a gel mount reagent (Biomeda, USA). The migrated cells (attached to the lower face of the membrane) were counted at three randomly selected sites under a microscope (×20). The cell counting was performed with the Image J program. From the counted cell numbers, each IC50 value was calculated by non-linear regression curve fit using the “GraphPad Prism” program.
The cells are pulled by laminin residing in the lower chamber and then passed through the polycarbonate membrane, so as to attach to the lower face of the membrane.

Molecules are shown by their SMILES.

T1 sequence (Q15046 whole entry): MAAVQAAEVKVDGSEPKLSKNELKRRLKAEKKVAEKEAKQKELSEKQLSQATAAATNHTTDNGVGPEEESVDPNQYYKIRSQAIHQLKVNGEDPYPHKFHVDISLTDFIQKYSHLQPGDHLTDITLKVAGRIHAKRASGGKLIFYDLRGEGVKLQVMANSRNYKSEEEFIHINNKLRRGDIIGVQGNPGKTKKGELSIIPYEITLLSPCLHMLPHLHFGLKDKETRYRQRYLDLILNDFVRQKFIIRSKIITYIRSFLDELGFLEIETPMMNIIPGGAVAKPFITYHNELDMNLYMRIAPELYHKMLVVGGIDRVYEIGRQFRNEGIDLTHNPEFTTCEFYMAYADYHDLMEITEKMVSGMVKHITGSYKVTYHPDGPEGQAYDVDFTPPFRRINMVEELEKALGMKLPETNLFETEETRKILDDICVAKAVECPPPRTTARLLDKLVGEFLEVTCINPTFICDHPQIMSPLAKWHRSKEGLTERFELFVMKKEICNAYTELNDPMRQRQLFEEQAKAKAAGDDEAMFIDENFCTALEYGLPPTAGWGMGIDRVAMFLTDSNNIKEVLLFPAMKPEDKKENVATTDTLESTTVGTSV
T3 sequence (Q15046 whole entry): as above
T2 sequence (Q15046 whole entry): as above

Consider `CCC(C(=O)O)n1c(=NC(=O)c2cccc(OC)c2)sc2c(F)cccc21` (stereo not shown) [Example 532], for which the “Yeast cell proliferation rates KRS-LR (%)” value in test [1] is reported as 43.7%. Further, the “Yeast cell proliferation rates KRS-AIMP2 (%)” value in test [2] is recorded as 98.6%. Moreover, the “Yeast cell proliferation rates KRS-AIMP3 (%)” value in test [3] is reported as 97.3%.

Take `CCOc1ccc2c(c1)sc(=NC(=O)c1ccc(C)cc1)n2C(CC)C(=O)O` (stereo not shown) [Example 7, 2-{6-ethoxy-2-[(4-methylbenzoyl)imino]benzo[d]thiazol-3(2H)-yl}butanoic acid]: the “Yeast cell proliferation rates KRS-LR (%)” value in test [1] amounted to 36.9%. Besides, the “Yeast cell proliferation rates KRS-AIMP2 (%)” value in test [2] is on record as 106.4%. In test [3], the “Yeast cell proliferation rates KRS-AIMP3 (%)” value is given as 100.1%.

`CCC(C(=O)O)n1c(=NC(=O)c2ccc(C)cc2)sc2c(F)c(F)ccc21` (stereo not shown) [Example 335, 2-(6,7-difluoro-2-((4-methylbenzoyl)imino)benzo[d]thiazol-3(2H)-yl)butanoic acid]: the “Yeast cell proliferation rates KRS-LR (%)” value in test [1] was found to be 10.8%. Further, the “Yeast cell proliferation rates KRS-AIMP2 (%)” value in test [2] was 101.6%. Further, in test [3], the “Yeast cell proliferation rates KRS-AIMP3 (%)” value came out at 105.3%.

For `CCC(C(=O)O)n1c(=NC(=O)c2cccc(F)c2)sc2c(F)c(F)ccc21` (stereo not shown) [Example 582, 2-(6,7-difluoro-2-((3-fluorobenzoyl)imino)benzo[d]thiazol-3(2H)-yl)butanoic acid], the “Yeast cell proliferation rates KRS-LR (%)” value in test [1] is reported as 49.3%. In test [2], the “Yeast cell proliferation rates KRS-AIMP2 (%)” value was 99.0%. In addition, the “Yeast cell proliferation rates KRS-AIMP3 (%)” value in test [3] came out at 93.0%.

For the compound `CCOc1ccc2c(c1)sc(=NC(=O)c1ccc(F)cc1)n2C(CC)C(=O)O` (stereo not shown) [Example 476, 2-(6-ethoxy-2-((4-fluorobenzoyl)imino)benzo[d]thiazol-3(2H)-yl)butanoic acid], the “Yeast cell proliferation rates KRS-LR (%)” value in test [1] came to 29.6%. In addition, the “Yeast cell proliferation rates KRS-AIMP2 (%)” value in test [2] came out at 91.0%. For the same compound, the “Yeast cell proliferation rates KRS-AIMP3 (%)” value in test [3] is recorded as 86.1%.

For the compound `CCC(C(=O)O)n1c(=NC(=O)c2ccc(OC)cc2)sc2cc(OC(F)(F)F)ccc21` (stereo not shown) [Example 507], the “Yeast cell proliferation rates KRS-LR (%)” value in test [1] was determined as 45.9%. For the same compound, the “Yeast cell proliferation rates KRS-AIMP2 (%)” value in test [2] was 99.3%. The “Yeast cell proliferation rates KRS-AIMP3 (%)” value in test [3] is given as 99.0%.

In the case of `CC(C(=O)O)n1c(=NC(=O)c2cccc(C(F)(F)F)c2)sc2ccc(F)cc21` (stereo not shown) [Example 355, 2-(5-fluoro-2-((3-(trifluoromethyl)benzoyl)imino)benzo[d]thiazol-3(2H)-yl)propionic acid], the “Yeast cell proliferation rates KRS-LR (%)” value in test [1] worked out at 22.1%. For the same compound, in test [2], the “Yeast cell proliferation rates KRS-AIMP2 (%)” value was 97.2%. For the same compound, the “Yeast cell proliferation rates KRS-AIMP3 (%)” value in test [3] worked out at 104.4%.

With `CCC(C(=O)O)n1c(=NC(=O)c2ccc(C)cc2)sc2cccc(OC)c21` (stereo not shown) [Example 8, 2-{4-methoxy-2-[(4-methylbenzoyl)imino]benzo[d]thiazol-3(2H)-yl}butanoic acid], the “Yeast cell proliferation rates KRS-LR (%)” value in test [1] came to 17.4%. For the same compound, in test [2], the “Yeast cell proliferation rates KRS-AIMP2 (%)” value turned out to be 84.6%. In addition, the “Yeast cell proliferation rates KRS-AIMP3 (%)” value in test [3] is 84.1%.

Take `CCC(C(=O)O)n1c(=NC(=O)c2ccc(OC)cc2)sc2c(F)c(F)ccc21` (stereo not shown) [Example 585]: the “Yeast cell proliferation rates KRS-LR (%)” value in test [1] was 46.3%. Also, in test [2], the “Yeast cell proliferation rates KRS-AIMP2 (%)” value is 95.8%. Besides, the “Yeast cell proliferation rates KRS-AIMP3 (%)” value in test [3] came out at 84.0%.

On to `CC(C(=O)O)n1c(=NC(=O)c2cccc(Cl)c2)sc2c(F)c(F)c(F)cc21` (stereo not shown) [Example 416, 2-(2-((3-chlorobenzoyl)imino)-5,6,7-trifluorobenzo[d]thiazol-3(2H)-yl)propionic acid], for which the “Yeast cell proliferation rates KRS-LR (%)” value in test [1] amounted to 24.7%. In addition, in test [2], the “Yeast cell proliferation rates KRS-AIMP2 (%)” value stood at 99.6%. In addition, in test [3], the “Yeast cell proliferation rates KRS-AIMP3 (%)” value turned out to be 99.3%.

In the case of `CC(C(=O)O)n1c(=NC(=O)c2cccc(C(F)(F)F)c2)sc2ccc(Cl)cc21` (stereo not shown) [Example 359, 2-(5-chloro-2-((3-(trifluoromethyl)benzoyl)imino)benzo[d]thiazol-3(2H)-yl)propionic acid], the “Yeast cell proliferation rates KRS-LR (%)” value in test [1] came to 21.9%. Besides, the “Yeast cell proliferation rates KRS-AIMP2 (%)” value in test [2] is recorded as 101.6%. The “Yeast cell proliferation rates KRS-AIMP3 (%)” value in test [3] is 107.0%.

`Cc1ccc(C(=O)N=c2sc3ccc(F)cc3n2C(C)C(=O)O)cc1` (stereo not shown) [Example 91, 2-[5-fluoro-2-(4-methylbenzoylimino)benzo[d]thiazol-3(2H)-yl]propionic acid]: the “Yeast cell proliferation rates KRS-LR (%)” value in test [1] was determined as 27.8%. The “Yeast cell proliferation rates KRS-AIMP2 (%)” value in test [2] amounted to 116.6%. Also, in test [3], the “Yeast cell proliferation rates KRS-AIMP3 (%)” value is 98.5%.

For `CCC(C(=O)O)n1c(=NC(=O)c2ccc(C)cc2)sc2cc3c(cc21)OCO3` (stereo not shown) [Example 237, 2-(6-((4-methylbenzoyl)imino)-[1,3]dioxolo[4′,5′:4,5]benzo[1,2-d]thiazol-7(6H)-yl)butanoic acid], in test [1], the “Yeast cell proliferation rates KRS-LR (%)” value is recorded as 34.1%. In addition, in test [2], the “Yeast cell proliferation rates KRS-AIMP2 (%)” value stood at 99.0%. Besides, in test [3], the “Yeast cell proliferation rates KRS-AIMP3 (%)” value stood at 114.8%.

Consider `CCC(C(=O)O)n1c(=NC(=O)c2cccc(Cl)c2)sc2c(C)cccc21` (stereo not shown) [Example 354, 2-(2-((3-chlorobenzoyl)imino)-7-methylbenzo[d]thiazol-3(2H)-yl)butanoic acid], for which the “Yeast cell proliferation rates KRS-LR (%)” value in test [1] is listed as 30.2%. Also, the “Yeast cell proliferation rates KRS-AIMP2 (%)” value in test [2] came to 103.0%. Further, the “Yeast cell proliferation rates KRS-AIMP3 (%)” value in test [3] is reported as 106.4%.

`CCC(C(=O)O)n1c(=NC(=O)c2cccc(F)c2)sc2c(Cl)cccc21` (stereo not shown) [Example 543, 2-(7-chloro-2-((3-fluorobenzoyl)imino)benzo[d]thiazol-3(2H)-yl)butanoic acid]: the “Yeast cell proliferation rates KRS-LR (%)” value in test [1] is 36.1%. Moreover, the “Yeast cell proliferation rates KRS-AIMP2 (%)” value in test [2] was 97.1%. Besides, in test [3], the “Yeast cell proliferation rates KRS-AIMP3 (%)” value amounted to 90.3%.

As to `CC(C(=O)O)n1c(=NC(=O)c2ccc(F)c(F)c2)sc2cc(F)c(F)cc21` (stereo not shown) [Example 463, 2-(2-((3,4-difluorobenzoyl)imino)-5,6-difluorobenzo[d]thiazol-3(2H)-yl)propionic acid], in test [1], the “Yeast cell proliferation rates KRS-LR (%)” value came out at 34.3%. Further, the “Yeast cell proliferation rates KRS-AIMP2 (%)” value in test [2] was determined as 96.7%. For the same compound, in test [3], the “Yeast cell proliferation rates KRS-AIMP3 (%)” value turned out to be 93.2%.

`Cc1cc2sc(=NC(=O)c3cccc(Cl)c3)n(C(C)C(=O)O)c2cc1C` (stereo not shown) [Example 212, 2-(2-((3-chlorobenzoyl)imino)-5,6-dimethylbenzo[d]thiazol-3(2H)-yl)propionic acid] gave an IC50 with A549 cells of 33 µM.

`CCC(C(=O)O)n1c(=NC(=O)c2ccc(C)cc2)sc2ccc(F)cc21` (stereo not shown) [Example 90, 2-[5-fluoro-2-(4-methylbenzoylimino)benzo[d]thiazol-3(2H)-yl]butanoic acid]: the IC50 in the test with A549 cells was determined as 31.6 µM.

In the case of `CC(C(=O)O)n1c(=NC(=O)c2cccc(C(F)(F)F)c2)sc2c(F)cccc21` (stereo not shown) [Example 346, 2-(7-fluoro-2-((3-(trifluoromethyl)benzoyl)imino)benzo[d]thiazol-3(2H)-yl)propionic acid], in the test with A549 cells, half-maximal inhibition (IC50) was put at 124 µM.

Regarding `CCC(C(=O)O)n1c(=NC(=O)c2cccc(Cl)c2)sc2cc3c(cc21)OCO3` (stereo not shown) [Example 240, 2-(6-((3-chlorobenzoyl)imino)-[1,3]dioxolo[4′,5′:4,5]benzo[1,2-d]thiazol-7(6H)-yl)butanoic acid], it took 16 µM to reach half-maximal inhibition with A549 cells (IC50).

For the origin of these results see US20150011528A1, “PHENYLIMIDE-CONTAINING BENZOTHIAZOLE DERIVATIVE OF ITS SALT AND PHARMACEUTICAL COMPOSITION COMPRISING THE SAME” (YUHAN CORPORATION, priority 2011, published 2015).
